# Assays:
# HSPs = test: Western blot overview of all HSPs in heat shocked H9c2 heart cells; assay type: cell-based, rat; settings: added 16 hours before the heat treatment
# Experimental: (§1) Experiments set forth in this section were conducted to determine whether N-[2-hydroxy-3-(1-piperidinyl)propoxy]-3-pyridinecarboximidoyl chloride maleate acts to increase the expression of molecular chaperon by a cell. The accumulation of different heat shock proteins subsequent to a period of exposure to heat shock alone, and to heat shock in combination with N-[2-hydroxy-3-(1-piperidinyl)propoxy]-3-pyridinecarboximidoyl chloride maleate administration, was examined by adding 10^−5 M of N-[2-hydroxy-3-(1-piperidinyl)propoxy]-3-pyridinecarboximidoyl chloride maleate before, during, or immediately after hyperthermic treatment of heart myogenic cells (H9c2 cells).
# (§2) The embryonic rat heart-derived cell line H9c2 was obtained from European Collection of Animal cell Cultures (ECACC) (88092904). The cells were maintained at 37° C. in Dulbecco's modified Eagle's medium (DMEM) supplemented with 10% fetal calf serum (GIBCO) in JOUAN C02 thermostat (5% CO2).
# (§3) Heat shock was performed at 43° C. in CO2 thermostat for the given time intervals (20, 40, 60, 90 and 120 min.). Cells were then taken back to 37° C. for 6 hours and proteins were extracted for SDS-PAGE. […]
# (§4) Protein concentration was determined from 5:1 samples by the Bradford assay (M. M. Braford, Anal. Biochem., 72: 248-254 (1976)) in three parallel. […]
# [1] = tested on: human skin grafted on severe combined immunodeficiency disease (SCID) mice; test: UVB light induced skin injury in human skin grafted SCID mice; assay type: in vivo, mouse; settings: 5.0 mg/kg i.p. for 7 days
# Experimental: Human skin tissues were grafted onto immunodeficiency (SCID) mice. The experimental protocol involved a treatment of one group of the mice with N-[2-hydroxy-3-(1-piperidinyl)propoxy]-3-piridinecarboxymidoyl chloride maleate (5.0 mg/kg i.p.) and the other with the solvent NaCl solution (300 μl) for 7 days. On day 8, both groups of mice were exposed to UVB light (100 mJ/cm^2) 24 hours subsequent to the exposure, skin biopsies were taken for histological (sections stained with hematoxylin and eosin), and immunohistological examinations (indirect immunoflourescence technique with monoclonal antibody, mAB).
# (i) Human skin transplanted SCID mice treated by N-[2-hydroxy-3-(1-piperidinyl)propoxy]-3-piridinecarboximidoyl chloride maleate (5.0 mg/kg i.p.) or vehicle were exposed to UVB light (100 mJ/cm^2). After 24 h skin biopsies were taken for histological examination and for hsp72 determination using immunohistological and Western blotting techniques.
# Grp94 = test: Western blot of Grp94 in heat shocked H9c2 cells; assay type: cell-based, rat
# Experimental: as §1, §2, §3, §4
# HSP-70 = test: Myocardial HSP-70 protein content in isolated rat hearts (Western blot)
# Experimental: In separate experiments the effects of heat stress, ischemia, N-[2-hydroxy-3-(1-piperidinyl)propoxy]-3-pyridine carboximidoyl chloride maleate and their combination were studied on myocardial HSP-70 protein content. Isolated hearts were subjected to 15 min. heat-stress (42° C.), global normothermic ischemia, and N-[2-hydroxy-3-[…](1-piperidinyl)propoxy]-3-pyridine carboximidoyl chloride maleate perfusion followed by 120 and 180 min. reperfusion, respectively.
# TNF treated WEHI 164 = test: Protection of cells against cytotoxic cytokines (TNF); assay type: cell-based; settings: WEHI 164 (and other mammalian) cells
# K562 cells = test: Sensitivity of K562 cells to lysis mediated by NK cells; assay type: cell-based, human; settings: heat shock plus treatment
smiles,measurement,setting,value
O=C(O)/C=C\C(=O)O.OC(CON=C(Cl)c1cccnc1)CN1CCCCC1 (stereo not drawn) [N-[2-hydroxy-3-(1-piperidinyl)-propoxy]3-pyridinecarboximidoyl chloride maleate],level of all HSPs increased further as compared to that observed upon heat stress,HSPs,at least twofold
same,clinical signs of injuries due to UV exposure,"[1]; UVB 100 mJ/cm^2, listed as N-[2-hydroxy-3-(1-piperidinyl)propoxy]-3-piridinecarboximidoyl chloride maleate",prevented UVB light induced skin injury
same,clinical signs of injuries due to UV exposure,"[1]; UVB 100 mJ/cm^2, listed as N-[2-hydroxy-3-(1-piperidinyl)propoxy]-3-piridinecarboxymidoyl chloride maleate",clinical signs of injuries due to UV exposure could not be observed
same,effect on Grp94 level,Grp94; addition during recovery from heat stress lasting for 40 to 60 min.,almost effective as the administration
same,increase of Grp94 compared to 43° C. treatment,Grp94; preaddition of the drug combined with a 20 min. long heat shock,4 times
same,myocardial HSP-70 content,HSP-70; compound alone,did not increase myocardial HSP-70 content
same,myocardial HSP-70 content,HSP-70; ischemia in the presence of 20 mg/l,increased to approximately the same level as found after heat stress
same,survival rate of TNF treated cells,TNF treated WEHI 164,increased the survival rate
same,lisability of K562 cells by NK cells,K562 cells,synergistic effect on the lisability of K562 cells
